Laboratory results: US20250002486A1, “CYCLIC SULFONAMIDE RIBONUCLEOTIDE REDUCTASE (RNR) INHIBITORS AND USES THEREOF” (Boundless Bio, Inc., priority 2021, published 2025)
pIC50: −log10 of the molar value.

Assays:
[1] = tested on: pCHK1 (S345) in Colo320 DM cells; test: Alphalisa assay: pCHK1 (S345) detection in Colo320 DM cells; format: cell-based, human; details: Homo sapiens, COLO 320DM, compound incubation overnight (approximately 16 hours), pCHK1 (S345) AlphaLisa Sure Fire kit
Procedure: Colo320 DM cells (ATCC #CCL-220, derived from human colorectal adenocarcinoma, Dukes' type C) were seeded on a 96-well, cell culture treated assay plate at a density of 50,000 cells/well in 200 μL of RPMI-1640 media supplemented with 10% Fetal Bovine Serum and incubated at 37 degrees Celsius overnight. The following day, test compound dilutions were added directly to the plated cells by a Tecan digital dispenser to a final DMSO concentration of <0.5%. and incubated at 37 degrees Celsius overnight (approximately 16 hours). The following day all cull culture media was removed from the cells. 75 μL of 1× AlphaLisa lysis buffer was added to each well and plates were agitated on a shaker for 30 minutes at room temperature. The lysis of cells and detection of pCHK1 (S345) were performed with regents contained within the AlphaLisa Sure Fire assay kit (Perkin Elmer #ALSU-PCHK1-A) according to the manufacturer's instructions. 10 μL of each lysate was then transferred to a white, 384-well assay plate (Perkin Elmer #6008280). 5 μL of Acceptor mix was then added to each well of lysate in the white, 384-well assay plate and incubated in the dark at room temperature for 60 minutes. 5 μL of Donor mix was then added to each well of the white, 384-well assay plate in subdued light and incubated at room temperature for 60 minutes. Plates were read on an Alpha Technology-compatible plate reader using standard AlphaLisa settings.

RNR (RNR1:RNR2 1:1) = RNR (RNR1:RNR2 1:1) (Homo sapiens (Human), UniProt P23921); test: RNR enzyme activity, rapid-fire mass spectrometry (RF/MS) assay; format: biochemical; details: RNR 50 nM, 1:1 RNR1:RNR2; CDP 5 μM, ATP 1 mM; 37° C., 45 min; compounds screened up to 50 μM
Procedure: A rapid-fire mass spectrometry (RF/MS) assay was used to assess RNR enzyme activity using a 384 well plate and a robotic platform.
The plate layout included two validated reference compounds (Triapine (3-AP) and Hydroxyurea (HU)): • A dose response in duplicate; top concentration: 5 μM (3-AP) and 250 μM (HU), semi-log • dilutions. • Spike wells in triplicate randomly spotted at four concentrations: • 250 μM, 100 μM, 30 μM and 2 μM for HU • 5 μM, 2 μM, 0.6 μM and 0.04 μM for 3-AP
First, the multidrop pipes were saturated for 30 minutes with enzymatic solution. Then 30 μL of Stop solution was distributed in column 24. Next, 15 μL of enzyme was distributed in column 1 to 24. Next, a pre-incubation step of 15 minutes at room temperature occurred, followed by distribution of 15 μL of substrate solution (column 1 to 24). Next, the plate was incubated for 45 minutes at 37° C. 30 μL of Stop solution was distributed to columns 1 to 23.
The final parameters for the enzyme reactions were: • Incubation: 37° C., 45 min • [CDP]: 5 μM; [ATP]: 1 mM; [NADPH]: No • [RNR]final: 50 nM with 1:1 (RNR1:RNR2) ratio • Final volume: 30 μL • Stop solution: 6% HCOOH containing 2 μM of 15

Chain of RNR (RNR1:RNR2 1:1) (P23921 whole entry): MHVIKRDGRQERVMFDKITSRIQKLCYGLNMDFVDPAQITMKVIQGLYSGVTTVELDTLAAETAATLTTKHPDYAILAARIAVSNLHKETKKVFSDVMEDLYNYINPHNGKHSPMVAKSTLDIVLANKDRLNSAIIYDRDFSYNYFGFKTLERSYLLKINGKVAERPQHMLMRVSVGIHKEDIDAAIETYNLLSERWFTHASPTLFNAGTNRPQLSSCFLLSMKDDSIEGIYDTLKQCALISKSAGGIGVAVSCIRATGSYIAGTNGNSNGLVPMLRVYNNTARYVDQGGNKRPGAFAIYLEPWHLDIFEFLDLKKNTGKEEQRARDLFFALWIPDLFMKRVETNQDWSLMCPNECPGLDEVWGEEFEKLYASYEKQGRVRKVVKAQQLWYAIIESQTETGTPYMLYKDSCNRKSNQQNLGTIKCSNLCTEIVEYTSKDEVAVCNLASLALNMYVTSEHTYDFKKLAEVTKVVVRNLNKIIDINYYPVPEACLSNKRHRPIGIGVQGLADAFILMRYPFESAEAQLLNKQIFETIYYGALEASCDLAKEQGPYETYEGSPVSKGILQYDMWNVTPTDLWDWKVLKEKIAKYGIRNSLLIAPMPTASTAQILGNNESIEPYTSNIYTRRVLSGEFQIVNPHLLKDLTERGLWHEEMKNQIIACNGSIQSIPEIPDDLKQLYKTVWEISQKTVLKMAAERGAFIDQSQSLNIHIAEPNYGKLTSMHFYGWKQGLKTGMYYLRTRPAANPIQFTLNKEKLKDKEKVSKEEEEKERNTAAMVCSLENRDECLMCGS

## Cc1ccc(F)c(C(C)[C@@H](c2n[nH]c(=O)o2)N2CC(C)(C)c3cc(Cl)ccc3S2(=O)=O)c1C (stereo partly drawn) [Example 21, 5-((1S)-1-(6-chloro-4,4-dimethyl-1,1-dioxido-3,4-dihydro-2H-benzo[e][1,2]thiazin-2-yl)-2-(6-fluoro-2,3-dimethylphenyl)propyl)-1,3,4-oxadiazol-2(3H)-one]
[1]
  pIC50: < 4.30
RNR (RNR1:RNR2 1:1)
  pIC50: 5.00 to 6.00

## Cc1ccc(F)c([C@@H](C)[C@@H](c2n[nH]c(=O)o2)N2CC(F)(F)c3cc(Cl)ccc3S2(=O)=O)c1C [Example 22, 5-((1S,2R)-1-(6-chloro-4,4-difluoro-1,1-dioxido-3,4-dihydro-2H-benzo[e][1,2]thiazin-2-yl)-2-(6-fluoro-2,3-dimethylphenyl)propyl)-1,3,4-oxadiazol-2(3H)-one]
[1]
  pIC50: 5.00 to 5.30
RNR (RNR1:RNR2 1:1)
  pIC50: 6.00 to 7.00

## Cc1ccc(F)c([C@@H](C)[C@@H](c2n[nH]c(=O)o2)N2CCc3c(Cl)cccc3S2(=O)=O)c1C [Example 23, 5-((1S,2R)-1-(5-chloro-1,1-dioxido-3,4-dihydro-2H-benzo[e][1,2]thiazin-2-yl)-2-(6-fluoro-2,3-dimethylphenyl)propyl)-1,3,4-oxadiazol-2(3H)-one]
[1]
  pIC50: 4.30 to 5.00
RNR (RNR1:RNR2 1:1)
  pIC50: 6.00 to 7.00

## Cc1ccc(F)c([C@@H](C)[C@@H](c2n[nH]c(=O)o2)N2CCc3nc(Cl)ccc3S2(=O)=O)c1C [Example 24, 5-((1S,2R)-1-(6-chloro-1,1-dioxido-3,4-dihydro-2H-pyrido[2,3-e] [1,2]thiazin-2-yl)-2-(6-fluoro-2,3-dimethylphenyl)propyl)-1,3,4-oxadiazol-2(3H)-one]
[1]
  pIC50: ≥ 5.30
RNR (RNR1:RNR2 1:1)
  pIC50: ≥ 7.00

## Cc1ccc(F)c([C@@H](C)[C@@H](c2n[nH]c(=O)o2)N2CC(C)(O)c3cc(Cl)ccc3S2(=O)=O)c1C (stereo partly drawn) [Example 25, 5-((1S,2R)-1-(6-chloro-4-hydroxy-4-methyl-1,1-dioxido-3,4-dihydro-2H-benzo[e][1,2]thiazin-2-yl)-2-(6-fluoro-2,3-dimethylphenyl)propyl)-1,3,4-oxadiazol-2(3H)-one]
[1]
  pIC50: 4.30 to 5.00
RNR (RNR1:RNR2 1:1)
  pIC50: ≥ 7.00

## Cc1ccc(F)c(C(C)[C@@H](c2n[nH]c(=O)o2)N2C[C@H](O)[C@H](O)c3cc(Cl)ccc3S2(=O)=O)c1C (stereo partly drawn) [Example 26, 5-((1S)-1-((4S, 5R)-7-chloro-4,5-dihydroxy-1,1-dioxido-4,5-dihydrobenzo [f][1,2]thiazepin-2(3H)-yl)-2-(6-fluoro-2,3-dimethylphenyl)propyl)-1,3,4-oxadiazol-2(3H)-one]
[1]
  pIC50: 4.30 to 5.00
RNR (RNR1:RNR2 1:1)
  pIC50: ≥ 7.00

## Cc1ccc(F)c([C@@H](C)[C@@H](c2n[nH]c(=O)o2)N2CCc3cc(Cl)ncc3S2(=O)=O)c1C [Example 27, 5-((1S,2R)-1-(6-chloro-1,1-dioxido-3,4-dihydro-2H-pyrido[4,3-e] [1,2]thiazin-2-yl)-2-(6-fluoro-2,3-dimethylphenyl)propyl)-1,3,4-oxadiazol-2(3H)-one]
[1]
  pIC50: < 4.30
RNR (RNR1:RNR2 1:1)
  pIC50: 6.00 to 7.00
